Test results reported in patent EP1551873B1, “AGONISTS AND ANTAGONISTS OF THE HUMAN ODORANT RECEPTOR OR17-4 AND USES THEREOF” (Symrise AG, priority 2002, dated 2004).
Entries after “also recorded” stand apart in the source; their conditions may differ.

System: hOR17-4
Experiment: Ca2+ imaging (Fura-2) of HEK293 cells transiently transfected with pOR17-4 (chimeric receptor)
Type: cell-based, human
Description: Es wird vermutet, dass die Transmembrandomänen III-VI eine Bindungstasche zum Binden von Agonisten bilden (s. S. Firestein, Nature 413, 211-218 (2001)). Um diese Vermutung für den Rezeptor hOR17-4 zu überprüfen wurde ein für die vermuteten Transmembrandomänen III bis VI codierender Abschnitt der für hOR17-4 codierenden cDNA in einem Shuttle-Expressions-Vektor (pOLF-Express) kloniert. Der Expressionsvektor pOLF-Express umfasst die für die N- und C-terminalen Regionen von hOR17-40 codierenden DNA-Abschnitte (C. H. Wetzel et al., Journal of Neuroscience 19, 7426-7433 (1999)). Das resultierende chimäre Rezeptorprotein sollte die Agonistenspezifität des vollständigen Rezeptors hOR17-4 besitzen.
HEK293-Zellen wurden in MEM (Life Technologies, Gaithersburg, MD), das mit 10 % hitze-inaktiviertem fetalem Kälber-Serum angereichert war, in einem Inkubator bei 37 °C in einer Atmosphäre aus 95 % befeuchteter Luft und 5 % CO2 kultiviert. Semikonfluente Zellen wurden in 35 mm Gefäßen (Falcon) mittels Calciumphosphat-Präzipitation (Zufall et al., PNAS 90 (1993), 9335-9339) unter Verwendung jeweils des Plasmids pOR17-4 bzw. pOR17-4v transfiziert. Die Transfektionseffizienz - typischerweise 10 % - wurde histochemisch mit dem Reporterplasmid pCH110 (Pharmacia, Uppsala, Schweden) überprüft, das für β-Galactosidase codiert. Messungen wurden 48 bis 72 Stunden nach der Transfektion durchgeführt. Die Transfektionseffizienz kann mit einem für GFP, einem grün fluoreszierenden Protein, codierenden Reporterplasmid ebenfalls überprüft werden.
Die Rezeptor-Aktivierung in HEK293-Zellen führt zu einem vorübergehenden Anstieg der cytosolischen Ca^2+-Konzentration, die auf der Einzelzell-Ebene unter Verwendung des Ca^2+-sensitiven Farbstoffes Fura-2 (Fura-2 AM, Molecular Probes Europe BV, Leiden, Niederlande; Ladekonzentration 3-4 µg/ml; Ladezeit ca. 30 min) und ratiofluorometrischen Bildgebungstechniken (Imaging-Experimente) detektiert wurden.
Die Ca^2+-imaging-Experimente wurden auf dem Träger eines invertierten Zeiss-Mikroskopes durchgeführt, das für die ratiofluorometrische Bildgebung mit einer Xenon-Bogenlampe, einem Vielfach-Wellenlängen-Illuminations-System POLYCH-ROM II zur Anregung, einer gekühlten charge-coupled device (CCD)-Kamera und einer WinNT-basierten T.I.L.L.-Vision-Software zum Sammeln und raum- und zeitabhängigen Quantifizieren Ca^2+-abhängiger Fluoreszenz-Signale (F340/F380-Verhältnis) ausgestattet war. HEK293-Zellen wurden mit 32-facher, Spermazellen mit 63-facher Vergrößerung beobachtet.
HEK293- und Spermazellen wurden unter Verwendung eines speziellen Applikations-Systems, das es gestattete, vorübergehend alle Zellen im Blickfeld aus einem von sechs benutzergewählten Kapillarröhrchen zu überspülen, Geruchs- und/oder Wirkstoffen (Testlösungen) ausgesetzt. Der Wechsel zwischen den Testlösungen erfolgte nahezu sofort; auch trat im Wesentlichen keine Wirkungsverzögerung nach dem Wechsel auf, weil die Röhrchenspitzen zum optischen Feld eng benachbart waren. Zwischen den Applikationen von Testlösungen überspülte ein Pufferlösungsstrom kontinuierlich alle Zellen im Gefäß, um jedwede potentielle Hintergrund-Anreicherung von Testlösungen (Geruchs- bzw. Wirkstoffen) zu minimieren. Alle Lösungen wurden bei Raumtemperatur appliziert. Alle verwendeten Geruchsstoffe stammten von Dr. T. Gerke, Henkel KGaA, Düsseldorf, FRG, andere Wirkstoffe wurden von Sigma gekauft. Zur Zusammensetzung der Henkel 100-Mischung vergleiche C. H. Wetzel et al., Journal of Neuroscience 19, 7426-7433 (1999).
Alle auf die potentielle Aktivierung von hOR17-4 untersuchten Geruchsstoffe wurden wenigstens in drei verschiedenen Reihen von Transfektionsexperimenten getestet. […] Geruchsstoffe, die nicht in wenigstens 2 % aller HEK293-Zellen messbare Ca^2+-Konzentrationssteigerung auslösten, wurden nicht zu den hOR17-4-spezifischen Agonisten gezählt, ebenso diejenigen wenigen der untersuchten Komponenten, die ein unspezifisches Ca^2+-Signal in fast jeder Zelle hervorriefen. […]

SMILES	Zellen, die auf Bourgeonal antworteten, mit vollständig inhibierter Rezeptoraktivierung (pre-incubation 30 s or longer before Bourgeonal) [von 28]	Einfluss auf die hOR17-4-Rezeptoraktivierung durch Bourgeonal (single components of Mix D, pre-incubation)	Induktion einer Ca^2+-Konzentrationssteigerung (agonist concentration reduced to 10^-6 M)	Wirksamkeit (Rangordnung der Agonisten) (ranking by amplitude normalised to ATP and by responding cells relative to Cyclamal ca. 5 mM)	Rezeptoraktivierung (Ca^2+-Antwort) (single odorant about 500 µM, pOR17-4-transfected HEK293 cells)
CCCCCCCCCCC=O [n-Undecanal]	26	vollständig inhibiert			
CC(C)(C)c1ccc(CCC=O)cc1 [Bourgeonal]			deutlich	wirksamere Agonisten; also recorded: der wirksamste getestete Agonist	Fähigkeit der Substanzen, den Rezeptor zu aktivieren
